Measured values: US12077503B2, “Substituted cyclic amides and their use as herbicides” (FMC CORPORATION, priority 2015, dated 2024)

Key:
Assay type in all cases: in vivo
[1] = test system: redroot pigweed (Amaranthus retroflexus); experiment: Test G Post-Emergence Protocol; settings: Amaranthus retroflexus, post-emergence, 312 h; for pest or weed control at 15.625 g/ha: 15.625 g ai/ha, evaluated after 13 days (100=total damage to plant; 0=no damage to plant), read-out: Pigweed, Redroot damage rating; for pest or weed control at 62.5 g/ha: 62.5 g ai/ha, read-out: Pigweed, Redroot damage rating (100=total damage to plant; 0=no damage to plant); for pest or weed control at 62.5 g/ha / pest or weed control at 250 g/ha: evaluated after 13 days; for pest or weed control at 250 g/ha: 250 g ai/ha, read-out: damage to plant, Pigweed, Redroot (100=total damage to plant; 0=no damage to plant)
Outline: (§1)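 Pot-grown seedlings, 8 days old, raised in a glasshouse at 24/16 °C day/night with 14 h light and 65% humidity, were sprayed post-emergence with test compound in acetone/water (50:50) plus 0.5% Tween 20 at 15.625, 62.5 or 250 g/ha. Damage was scored visually 13 days later on a 0–100 scale (100 = total damage).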

[2] = test system: ivy-leaved morning glory (Ipomoea hederacea); experiment: Test G Post-Emergence Protocol; settings: Ipomoea, post-emergence, 312 h; for pest or weed control at 15.625 g/ha: 15.625 g ai/ha, evaluated after 13 days (100=total damage to plant; 0=no damage to plant), read-out: Morningglory, Ivy-leaved damage rating; for pest or weed control at 62.5 g/ha: 62.5 g ai/ha, read-out: Morningglory, Ivy-leaved damage rating (100=total damage to plant; 0=no damage to plant); for pest or weed control at 62.5 g/ha / pest or weed control at 250 g/ha: evaluated after 13 days; for pest or weed control at 250 g/ha: 250 g ai/ha, read-out: damage to plant, Morningglory, Ivy-leaved (100=total damage to plant; 0=no damage to plant)
Outline: as §1

[3] = test system: giant foxtail (Setaria faberi); experiment: Test G Post-Emergence Protocol; settings: Setaria faberi, post-emergence, 312 h; for pest or weed control at 15.625 g/ha: 15.625 g ai/ha, evaluated after 13 days (100=total damage to plant; 0=no damage to plant), read-out: Foxtail, Giant damage rating; for pest or weed control at 62.5 g/ha: 62.5 g ai/ha, read-out: Foxtail, Giant damage rating (100=total damage to plant; 0=no damage to plant); for pest or weed control at 62.5 g/ha / pest or weed control at 250 g/ha: evaluated after 13 days; for pest or weed control at 250 g/ha: 250 g ai/ha, read-out: damage to plant, Foxtail, Giant (100=total damage to plant; 0=no damage to plant)
Outline: as §1

corn (Zea mays) [4] = experiment: Test G Post-Emergence Protocol; settings: Zea mays, post-emergence, 312 h; for plant injury at 15.625 g/ha: 15.625 g ai/ha, evaluated after 13 days (100=total damage to plant; 0=no damage to plant), read-out: Corn damage rating; for plant injury at 62.5 g/ha: 62.5 g ai/ha, read-out: Corn damage rating (100=total damage to plant; 0=no damage to plant); for plant injury at 62.5 g/ha / plant injury at 250 g/ha: evaluated after 13 days; for plant injury at 250 g/ha: 250 g ai/ha, read-out: damage to plant, Corn (100=total damage to plant; 0=no damage to plant)
Outline: as §1

[5] = test system: barnyardgrass (Echinochloa crus-galli); experiment: Test G Post-Emergence Protocol; settings: Echinochloa crus-galli, post-emergence, 312 h; for pest or weed control at 15.625 g/ha: 15.625 g ai/ha, evaluated after 13 days (100=total damage to plant; 0=no damage to plant), read-out: Barnyardgrass damage rating; for pest or weed control at 62.5 g/ha: 62.5 g ai/ha, read-out: Barnyardgrass damage rating (100=total damage to plant; 0=no damage to plant); for pest or weed control at 62.5 g/ha / pest or weed control at 250 g/ha: evaluated after 13 days; for pest or weed control at 250 g/ha: 250 g ai/ha, read-out: damage to plant, Barnyardgrass (100=total damage to plant; 0=no damage to plant)
Outline: as §1

[6] = test system: velvetleaf (Abutilon theophrasti); experiment: Test G Post-Emergence Protocol; settings: Abutilon theophrasti, post-emergence, 312 h; for pest or weed control at 15.625 g/ha: 15.625 g ai/ha, evaluated after 13 days (100=total damage to plant; 0=no damage to plant), read-out: Velvetleaf damage rating; for pest or weed control at 62.5 g/ha: 62.5 g ai/ha, read-out: Velvetleaf damage rating (100=total damage to plant; 0=no damage to plant); for pest or weed control at 62.5 g/ha / pest or weed control at 250 g/ha: evaluated after 13 days; for pest or weed control at 250 g/ha: 250 g ai/ha, read-out: damage to plant, Velvetleaf (100=total damage to plant; 0=no damage to plant)
Outline: as §1

[7] = test system: redroot pigweed (Amaranthus retroflexus); experiment: Test G Pre-Emergence Protocol; settings: Amaranthus retroflexus, pre-emergence, 312 h, evaluated after 13 days; for pest or weed control at 15.625 g/ha: 15.625 g ai/ha; for pest or weed control at 15.625 g/ha / pest or weed control at 250 g/ha: read-out: Pigweed, Redroot damage rating (100=total damage to plant; 0=no damage to plant); for pest or weed control at 62.5 g/ha: 62.5 g ai/ha, 100=total damage to plant, 0=no damage to plant, read-out: plant damage rating, Pigweed, Redroot; for pest or weed control at 250 g/ha: 250 g ai/ha
Outline: (§2)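 Herbicidal effect was rated 13 days post-application on a scale where 100 equals total damage. Spraying took place the day after sowing, using 15.625, 62.5 or 250 g/ha of compound in a 50:50 acetone/water solution with 0.5% Tween 20.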

[8] = test system: ivy-leaved morning glory (Ipomoea hederacea); experiment: Test G Pre-Emergence Protocol; settings: Ipomoea, pre-emergence, 312 h, evaluated after 13 days; for pest or weed control at 15.625 g/ha: 15.625 g ai/ha, read-out: Morning-glory, Ivy-leaved damage rating (100=total damage to plant; 0=no damage to plant); for pest or weed control at 62.5 g/ha: 62.5 g ai/ha, 100=total damage to plant, 0=no damage to plant, read-out: plant damage rating, Morningglory, Ivy-leaved; for pest or weed control at 250 g/ha: 250 g ai/ha, read-out: Morningglory, Ivy-leaved damage rating (100=total damage to plant; 0=no damage to plant)
Outline: as §2

[9] = test system: giant foxtail (Setaria faberi); experiment: Test G Pre-Emergence Protocol; settings: Setaria faberi, pre-emergence, 312 h, evaluated after 13 days; for pest or weed control at 15.625 g/ha: 15.625 g ai/ha; for pest or weed control at 15.625 g/ha / pest or weed control at 250 g/ha: read-out: Foxtail, Giant damage rating (100=total damage to plant; 0=no damage to plant); for pest or weed control at 62.5 g/ha: 62.5 g ai/ha, 100=total damage to plant, 0=no damage to plant, read-out: plant damage rating, Foxtail, Giant; for pest or weed control at 250 g/ha: 250 g ai/ha
Outline: as §2

corn (Zea mays) [10] = experiment: Test G Pre-Emergence Protocol; settings: Zea mays, pre-emergence, 312 h, evaluated after 13 days; for plant injury at 15.625 g/ha: 15.625 g ai/ha; for plant injury at 15.625 g/ha / plant injury at 250 g/ha: read-out: Corn damage rating (100=total damage to plant; 0=no damage to plant); for plant injury at 62.5 g/ha: 62.5 g ai/ha, 100=total damage to plant, 0=no damage to plant, read-out: plant damage rating, Corn; for plant injury at 250 g/ha: 250 g ai/ha
Outline: as §2

[11] = test system: barnyardgrass (Echinochloa crus-galli); experiment: Test G Pre-Emergence Protocol; settings: Echinochloa crus-galli, pre-emergence, 312 h, evaluated after 13 days; for pest or weed control at 15.625 g/ha: 15.625 g ai/ha, read-out: Barnyard grass damage rating (100=total damage to plant; 0=no damage to plant); for pest or weed control at 62.5 g/ha: 62.5 g ai/ha, 100=total damage to plant, 0=no damage to plant, read-out: plant damage rating, Barnyardgrass; for pest or weed control at 250 g/ha: 250 g ai/ha, read-out: Barnyardgrass damage rating (100=total damage to plant; 0=no damage to plant)
Outline: as §2

[12] = test system: velvetleaf (Abutilon theophrasti); experiment: Test G Pre-Emergence Protocol; settings: Abutilon theophrasti, pre-emergence, 312 h, evaluated after 13 days; for pest or weed control at 15.625 g/ha: 15.625 g ai/ha; for pest or weed control at 15.625 g/ha / pest or weed control at 250 g/ha: read-out: Velvetleaf damage rating (100=total damage to plant; 0=no damage to plant); for pest or weed control at 62.5 g/ha: 62.5 g ai/ha, 100=total damage to plant, 0=no damage to plant, read-out: plant damage rating, Velvetleaf; for pest or weed control at 250 g/ha: 250 g ai/ha
Outline: as §2

Row | Compound | pest or weed control at 15.625 g/ha [1] | pest or weed control at 62.5 g/ha [1] | pest or weed control at 250 g/ha [1] | pest or weed control at 15.625 g/ha [2] | pest or weed control at 62.5 g/ha [2] | pest or weed control at 250 g/ha [2] | pest or weed control at 15.625 g/ha [3] | pest or weed control at 62.5 g/ha [3] | pest or weed control at 250 g/ha [3] | plant injury at 15.625 g/ha (corn (Zea mays) [4]) | plant injury at 62.5 g/ha (corn (Zea mays) [4]) | plant injury at 250 g/ha (corn (Zea mays) [4]) | pest or weed control at 15.625 g/ha [5] | pest or weed control at 62.5 g/ha [5] | pest or weed control at 250 g/ha [5] | pest or weed control at 15.625 g/ha [6] | pest or weed control at 62.5 g/ha [6] | pest or weed control at 250 g/ha [6] | pest or weed control at 15.625 g/ha [7] | pest or weed control at 62.5 g/ha [7] | further results
1 | CN1C[C@@H](c2ccc(C(F)(F)F)cc2)[C@H](C(=O)Nc2nn[nH]n2)C1=O (racemic) [Compound 1612] | 0% | 0% | 0% | 0% | 0% | 0% | 0% | 0% | 0% | 0% | 0% | 0% | 0% | 0% | 0% | 0% | 0% | 0% | 0% | 0% | pest or weed control at 250 g/ha [7]: 0%; pest or weed control at 15.625 g/ha [8]: 0%; pest or weed control at 62.5 g/ha [8]: 0%; pest or weed control at 250 g/ha [8]: 0%; pest or weed control at 15.625 g/ha [9]: 0%; pest or weed control at 62.5 g/ha [9]: 0%; pest or weed control at 250 g/ha [9]: 0%; plant injury at 15.625 g/ha (corn (Zea mays) [10]): 0%; plant injury at 62.5 g/ha (corn (Zea mays) [10]): 0%; plant injury at 250 g/ha (corn (Zea mays) [10]): 0%; pest or weed control at 15.625 g/ha [11]: 0%; pest or weed control at 62.5 g/ha [11]: 0%; pest or weed control at 250 g/ha [11]: 0%; pest or weed control at 15.625 g/ha [12]: 0%; pest or weed control at 62.5 g/ha [12]: 0%; pest or weed control at 250 g/ha [12]: 0%
2 | CN1C[C@@H](c2ccc(C(F)(F)F)cc2)[C@H](C(=O)Nc2ccn(C)n2)C1=O (racemic) [Compound 1615] | 0% | 0% | 0% | 0% | 0% | 0% | 0% | 0% | 0% | 0% | 0% | 0% | 0% | 0% | 0% | 0% | 0% | 0% | 0% | 0% | pest or weed control at 250 g/ha [7]: 0%; pest or weed control at 15.625 g/ha [8]: 0%; pest or weed control at 62.5 g/ha [8]: 0%; pest or weed control at 250 g/ha [8]: 0%; pest or weed control at 15.625 g/ha [9]: 0%; pest or weed control at 62.5 g/ha [9]: 0%; pest or weed control at 250 g/ha [9]: 0%; plant injury at 15.625 g/ha (corn (Zea mays) [10]): 0%; plant injury at 62.5 g/ha (corn (Zea mays) [10]): 0%; plant injury at 250 g/ha (corn (Zea mays) [10]): 0%; pest or weed control at 15.625 g/ha [11]: 0%; pest or weed control at 62.5 g/ha [11]: 0%; pest or weed control at 250 g/ha [11]: 0%; pest or weed control at 15.625 g/ha [12]: 0%; pest or weed control at 62.5 g/ha [12]: 0%; pest or weed control at 250 g/ha [12]: 0%
3 | CN1C[C@@H](c2ccc(C(F)(F)F)cc2)[C@H](C(=O)Nc2nnnn2C)C1=O (racemic) [Compound 1618] | 0% | 0% | 0% | 0% | 0% | 0% | 0% | 0% | 0% | 0% | 0% | 0% | 0% | 0% | 0% | 0% | 0% | 0% | 0% | 0% | pest or weed control at 250 g/ha [7]: 20%; pest or weed control at 15.625 g/ha [8]: 0%; pest or weed control at 62.5 g/ha [8]: 0%; pest or weed control at 250 g/ha [8]: 20%; pest or weed control at 15.625 g/ha [9]: 0%; pest or weed control at 62.5 g/ha [9]: 0%; pest or weed control at 250 g/ha [9]: 20%; plant injury at 15.625 g/ha (corn (Zea mays) [10]): 0%; plant injury at 62.5 g/ha (corn (Zea mays) [10]): 0%; plant injury at 250 g/ha (corn (Zea mays) [10]): 20%; pest or weed control at 15.625 g/ha [11]: 0%; pest or weed control at 62.5 g/ha [11]: 0%; pest or weed control at 250 g/ha [11]: 10%; pest or weed control at 15.625 g/ha [12]: 0%; pest or weed control at 62.5 g/ha [12]: 0%; pest or weed control at 250 g/ha [12]: 10%
